According to patent US20040034206A1, “Combination therapy for RNA virus infections involving ribavirin and IMPDH inhibitors” (priority 2002, published 2004):
Where two headings read alike, the source gives them in different places.

Experiments:
[1] = system: HCV subgenomic replicon (clone 16) in Huh-7 cells; assay type: cell-based, Hepatitis C Virus
Description: We examined the mutagenic effect of ribavirin and other IMPDH inhibitors on HCV using the recently developed HCV replicon system. See German Patent No. DE19915178A1 to Bartenschlager, the disclosure of which is hereby incorporated by reference in its entirety. In the replicon system, an autonomously replicating clone of HCV comprising HCV 5′-NTR (NTR non translated region), NS3, NS4A, NS4B, NS5A, NS5B and a neomycin selectable marker gene that is linked to the HCV genes is inserted into human hepatoma cell line known as Huh-7 cells. The HCV-RNAs produced by the autonomously replicating clone of HCV in the Huh-7 cells are extracted and retransfected into naïve Huh-7 cells to evaluate the replication competence and efficiency of the HCV-RNA. Therefore, the effect of anti-viral treatments on the HCV-RNAs produced may be evaluated by growing the replicon cells in the presence or absence of such anti-viral treatments, then extracting the replicon RNA from treated cells and transfecting it into naive Huh 7 cells and measuring colony formation. The effect of the combination of ribavirin, and IMPDH inhibitors on HCV replication in vitro was evaluated using the replicon system as described below.
HCV Cell Culture System. Human hepatoma cell line Huh-7 cells were grown in Dulbecco's modified minimal essential medium (DMEM, Cellgro) supplemented with 10% fetal bovine serum, 4 mM L-glutamine, non-essential amino acids, 10 mM HEPES, 0.075% sodium bicarbonate, 100 U/ml penicillin and 100 ug/ml streptomycin, and 1 mM sodium pyruvate. HCV subgenomic replicon (clone 16, containing NS5A S1I791 adaptive mutation as described in Blight et al., Science 290:1972 (2000)) was constructed by Schering-Plough Research Institute as described by R. Bartenschlager. See Lohmann, et al., Science 285:5424 (2000). The replicon-bearing Huh-7 cells were maintained in the same media as described above with 0.5 mg/ml G418 (Geneticin, Gibco-BRL).
HCV RNA Replicon Copy Number measurement by Taqman assays. Replicon cells were seeded at 3000 cells per well in 96-well Bio-coated plates (Becton Dickinson) and allowed to adhere overnight. The next day the culture medium was replaced with 5% serum medium containing the experimental compound. After 72 hours the plate was harvested by aspirating medium, washing with PBS twice, and putting in […] cell lysis buffer (Ambion, catalog No. 8722). The plate was then heated at 75° C. for 5 min followed by freezing at −70° C. for 10 min. The cell lysate was then measured for HCV replicon copy number by one-step real-time RT-PCR (Taqman assay) using an ABI 7700 instrument. The primers, which correspond to HCV NS5B, are: forward, 5′-[…]-3′ (SEQ ID NO: 1), and reverse, 5′-[…]-3′ (SEQ ID NO: 2). The double fluorescence-labeled probe (5′-[…]-3′) (SEQ ID NO: 3) was purchased from Applied Biosystems (part No. P6448-6464). The cellular GAPDH (glyceraldehyde 3-phosphate dehydrogenase) mRNA from the same cell lysate was used as an internal control for cell number and metabolic status (primers/probes purchased from Perkin Elmer, part No. 4310859). Every experiment was performed in triplicate. The entire study was conducted independently two times.
Specific Colony Formation Efficiency (SCFE) determination. Replicon cells were loaded with compound(s) for 10 days under complete DMEM (without G418), with medium changes every 2-3 days. The total cytoplasmic RNA was extracted using RNA Easy kit from Qiagen (catalog No. 74104) and the RNA concentration was determined by absorbance at 260 nm. HCV replicon copy number in each RNA sample was determined by Taqman assay using a standard curve. For electroporation of RNA obtained from compound-treated replicon cells, 8 μg of total RNA suspended in 50 μl PBS was mixed with 50 μl suspension of 2×10^6 Huh-7 cells in a 0.1 cm cuvette (Bio-Rad, catalog No. 165-2089). As a control, wild type replicon RNA was serially diluted with total RNA from naïve Huh-7 cells.

[2] = target: inosine monophosphate dehydrogenase (IMPDH); settings: cited from J. Jain et al.; cited from earlier work
[3] = human, in vivo; cited from earlier work
Hepatitis C Virus = settings: IFN-α monotherapy, chronic HCV infection, depending on genotype; cited from earlier work

**Q.** For Nc1nc2c(ncn2[C@@H]2O[C@H](CO)[C@@H](O)[C@H]2O)c(=O)[nH]1 [Guan., guanosine], which “No. of Colonies” value ([1]; 10 μM Guan.) is on record?
**A.** 210

**Q.** What about the “Replicon Copy No.” value ([1]; 10 μM Guan.) of the same compound?
**A.** 12 copies X 10^7/8 μg total RNA

**Q.** What about the “SCFE (Specific Colony Formation Efficiency)” value (“SCFE” for short) ([1]; 10 μM Guan.) of the same compound?
**A.** 180 colonies/10^8 HCV RNA genomes

**Q.** What does the source list for COc1cc(NC(=O)Nc2cccc(CNC(=O)O[C@H]3CCOC3)c2)ccc1-c1cnco1 [IMPDH-I, (S)-N-3-[3-(3-methoxy-4-oxazol-5-yl-phenyl)ureido]-benzylcarbamic acid tetrahydrofuran-3-yl-ester]?
**A.** No. of Colonies ([1]; 100 nM IMPDH-I): 370; Replicon Copy No. ([1]; 100 nM IMPDH-I): 10 copies X 10^7/8 μg total RNA; SCFE (Specific Colony Formation Efficiency) ([1]; 100 nM IMPDH-I): 360 colonies/10^8 HCV RNA genomes; effect on the replicon ([1]; 100 nM IMPDH-I alone, Example 5): only a marginal effect; Ki [2]: ~10 nM

**Q.** What does the source list for COc1c(C)c2c(c(O)c1C/C=C(\C)CCC(=O)O)C(=O)OC2 [MPA, mycophenolic acid]?
**A.** No. of Colonies ([1]; 2 μM MPA): 470; Replicon Copy No. ([1]; 2 μM MPA): 9 copies X 10^7/8 μg total RNA; SCFE (Specific Colony Formation Efficiency) ([1]; 2 μM MPA): 510 colonies/10^8 HCV RNA genomes

**Q.** For NC(=O)c1ncn([C@@H]2O[C@H](CO)[C@@H](O)[C@H]2O)n1 [ribavirin, 1-beta-D-Ribofuranosyl-1H-1,2,4-triazole-3-carboxamide], which “patients with reduction in hemoglobin of greater than 4 g/dl” value [3] is on record?
**A.** 15.7%

**Q.** What about the “No. of Colonies” value ([1]; 10 μM ribavirin) of the same compound?
**A.** 650

**Q.** What about the “Replicon Copy No.” value ([1]; 10 μM ribavirin) of the same compound?
**A.** 14 copies X 10^7/8 μg total RNA

**Q.** And the “SCFE” value ([1]; 10 μM ribavirin)?
**A.** 480 colonies/10^8 HCV RNA genomes

**Q.** And the “No. of Colonies” value ([1]; 50 μM ribavirin)?
**A.** 420

**Q.** What about the “Replicon Copy No.” value ([1]; 50 μM ribavirin) of the same compound?
**A.** 12 copies X 10^7/8 μg total RNA

**Q.** And the “SCFE” value ([1]; 50 μM ribavirin)?
**A.** 360 colonies/10^8 HCV RNA genomes

**Q.** What about the “No. of Colonies” value ([1]; 100 μM ribavirin) of the same compound?
**A.** 110

**Q.** What about the “Replicon Copy No.” value ([1]; 100 μM ribavirin) of the same compound?
**A.** 6 copies X 10^7/8 μg total RNA

**Q.** What about the “SCFE” value ([1]; 100 μM ribavirin) of the same compound?
**A.** 200 colonies/10^8 HCV RNA genomes

**Q.** What about the “reduction in the fitness of the replicon (specific colony formation efficiency)” value ([1]; 100 μM ribavirin alone) of the same compound?
**A.** ~4 fold

**Q.** Which response rate (Hepatitis C Virus) does the source give for interferon-alpha here?
**A.** about 25%
